Test system: GST-tagged Cn
Assay: PEPperPRINT peptide microarray binding assay with GST-tagged Cn
Text: We then estimated in-silico the binding strength of the various peptides to Cn by template-based docking followed by flexible backbone refinement using Modeller and PepCrawler (Figs 4 and S4). In parallel, we performed a medium-throughput qualitative binding assay using a PEPperPRINT peptide microarray to evaluate the direct binding of Cn to selected peptides (Figs 4 and S5, S3 Data).
Fig 4 Medium-throughput filtering by structural modeling and microarray screening. (a) Depiction of the structural modeling protocol: after alignment to the known PxIxIT binding site, an efficient flexible backbone structure refinement algorithm is applied to estimate the docking energy. […] (c) Coefficients of the equivalent single-site model fitted by sparse linear regression, shown in weight logo representation. […] Colors indicate physical property (black = hydrophobic, red = negatively charged, etc.). (d) Per-gene distribution of docking scores across natural fragments (lower is better). […] (e) Overview of the microarray screening. Peptides are printed on the chip (two circles per peptide). After pouring of Cn and subsequent washing, fluorescent-tagged, a Cn-targeting antibody is overlaid and an image is taken. Fluorescent spots indicate strong Cn binders. (f) Scatter plot of the sequence likelihood (normalized by length, higher is better) against fluorescence level (higher is better, see Methods for details of the data analysis).
In parallel, selected peptides were tested for Cn binding on a chip microarray (PEPperPRINT). 786 peptides were printed on the chip and were incubated with GST-tagged Cn overnight at 4°C. Following extensive washing, binding was detected by applying a fluorescently labeled (Alexa-Fluor 647) GST antibody. […] The experiment was repeated five times, and Z-normalized fluorescence levels were determined following post-processing of the raw data (Methods, S5A, S5B and S5C Fig).
The peptide array was prepared as a custom array pepper chip (PEPperPRINT). For binding detection, 1mg/ml GST-tagged Cn was incubated overnight on the microarray at 4°C. Following extensive washing, fluorescently labeled (Alexa-Fluor 647) GST-antibody. […] The experiment was repeated five times. Each scan was analyzed as follows: a grid was overlaid using the border HA markers to determine regions of interest (ROI) for each peptide (two ROIs per peptide) and the logarithm of the average fluorescence intensity was computed for each ROI. […] To remove spatial artifacts, a position-dependent baseline fluorescence was fitted using a second-order polynomial, and subtracted to the fluorescence. Fluorescence levels were next averaged over the two ROI for each peptide and Z-normalized. […] The Z-scores were averaged over the five repetitions to yield one fluorescence score per peptide.

[1] = GST-tagged Cn, max over the chip locations
[2] = GST-tagged Cn, mean over the chip locations
[3] = GST-tagged Cn, max over the spots named in Location on chip
[4] = GST-tagged Cn, mean over the spots named in Location on chip
[5] = max over the spots listed under Location on chip
[6] = mean over the spots listed under Location on chip
[7] = GST-tagged Cn, max over the spots on the chip (two locations)
[8] = GST-tagged Cn, mean over the spots on the chip (two locations)
[9] = GST-tagged Cn, max over the chip spots listed under Location on chip
[10] = GST-tagged Cn, mean over the chip spots listed under Location on chip
[11] = max over the chip locations listed for the peptide (two spots)
[12] = mean over the chip locations listed for the peptide (two spots)

## TFHREPQNRLYVLSAV [SeqRBM_456]
[1]
  Chip Fluorescence (max): 0.238
[2]
  Chip Fluorescence (mean): -1.007

## STSSLPTFSFSPPAPS [SeqRBMlowT_2355]
[3]
  Chip Fluorescence (max): 1.468
[4]
  Chip Fluorescence (mean): -0.4662

## RAYINPFMQFQIGGNH [SeqRBMlowT_4074]
[5]
  Chip Fluorescence (max): 2.865
[6]
  Chip Fluorescence (mean): 0.3097

## RAYINPFMTFTDGGRR [SeqRBMlowT_3400]
[5]
  Chip Fluorescence (max): 3.064
[6]
  Chip Fluorescence (mean): 0.978

## SKLMCVTLAIGSLSTS [SeqRBM_2514]
[7]
  Chip Fluorescence (max): 1.101
[8]
  Chip Fluorescence (mean): -0.2904

## PQMAPPAINIDFAPTN [SeqRBMlowT_2475]
[3]
  Chip Fluorescence (max): 1.458
[4]
  Chip Fluorescence (mean): -0.38

## TFWTNPQFNVTLSEAD [SeqRBM_9395]
[5]
  Chip Fluorescence (max): 2.777
[6]
  Chip Fluorescence (mean): 0.5231

## TFWTNPQFRIHLEEED [SeqRBMlowT_251]
[5]
  Chip Fluorescence (max): 2.844
[6]
  Chip Fluorescence (mean): 1.205

## DSSANPEITITPAELP [SeqRBMlowT_4460]
[5]
  Chip Fluorescence (max): 2.624
[6]
  Chip Fluorescence (mean): 0.4288

## TFWTNPQFRITVTDPD [SeqRBMlowT_669]
[5]
  Chip Fluorescence (max): 2.934
[6]
  Chip Fluorescence (mean): 1.6891

## STSSLPTFSFSSPKPQ [SeqRBMlowT_8920]
[7]
  Chip Fluorescence (max): 1.216
[8]
  Chip Fluorescence (mean): -1.018

## PSMAAPAINIDFAPTN [SeqRBMlowT_2463]
[9]
  Chip Fluorescence (max): 0.9672
[10]
  Chip Fluorescence (mean): 0.03589

## TFWTNPQYKVKLEEED [SeqRBMlowT_252]
[7]
  Chip Fluorescence (max): 1.065
[8]
  Chip Fluorescence (mean): 0.727

## NDHALPEITVTPAELP [SeqRBM_7856]
[11]
  Chip Fluorescence (max): 4.823
[12]
  Chip Fluorescence (mean): 1.654

## PVHTIHRVSLQDAGKY [SeqCEACAM5_Aedes_aegypti]
[9]
  Chip Fluorescence (max): 0.8319
[10]
  Chip Fluorescence (mean): -0.7144

## DTLWIGSGTVTDSGNY [SeqRBM_1220]
[11]
  Chip Fluorescence (max): 3.766
[12]
  Chip Fluorescence (mean): 0.1629

## DTYGTASLARELPSPK [Seqshuffled_9914]
[3]
  Chip Fluorescence (max): 1.867
[4]
  Chip Fluorescence (mean): 0.7201

## NGPGTPTRQGQPLAPS [SeqRBMlowT_7792]
[9]
  Chip Fluorescence (max): 0.749
[10]
  Chip Fluorescence (mean): -1.0469

## GPQDIPEVVVSPPEDD [SeqSLC4A7_Austrofundulus_limnaeus]
[11]
  Chip Fluorescence (max): 6.762
[12]
  Chip Fluorescence (mean): 1.072

## TFWTNPQFRITLDSPD [SeqRBMlowT_5998]
[5]
  Chip Fluorescence (max): 2.88
[6]
  Chip Fluorescence (mean): 0.5672

## TFWTNPQYRMVLDEDD [SeqRBM_7411]
[11]
  Chip Fluorescence (max): 5.3741
[12]
  Chip Fluorescence (mean): 1.404

## REYINPKMHFHFLNTV [SeqRBM_9087]
[3]
  Chip Fluorescence (max): 1.764
[4]
  Chip Fluorescence (mean): -0.3424

## QYAYNSQMMGITTQLQ [Seqshuffled_9335]
[9]
  Chip Fluorescence (max): 0.8878
[10]
  Chip Fluorescence (mean): -0.5817

## HVSSSPDIALTPEQHD [SeqRBM_7666]
[1]
  Chip Fluorescence (max): 0.08725
[2]
  Chip Fluorescence (mean): -0.9315

## RNPGTFPLTLEGHKKQ [SeqRBMlowT_6333]
[7]
  Chip Fluorescence (max): 1.229
[8]
  Chip Fluorescence (mean): -0.4106

## REPGVPPLELKGHLSL [SeqRBM_7171]
[3]
  Chip Fluorescence (max): 1.816
[4]
  Chip Fluorescence (mean): 0.8874

## TFWTNPQYRITLEEPD [SeqRBMlowT_212]
[7]
  Chip Fluorescence (max): 1.104
[8]
  Chip Fluorescence (mean): 0.3317

## GAPGTPSRWGTPLAPS [SeqRBM_851]
[3]
  Chip Fluorescence (max): 1.622
[4]
  Chip Fluorescence (mean): 0.7552

## TFWTNPQYKITLEEDD [SeqRBMlowT_9018]
[5]
  Chip Fluorescence (max): 2.666
[6]
  Chip Fluorescence (mean): -0.09775

## RTNLNPFFFFTSDSKN [SeqRBM_2819]
[1]
  Chip Fluorescence (max): -0.6014
[2]
  Chip Fluorescence (mean): -1.251

## STSSLPTFSFSSPPPT [SeqRBMlowT_3483]
[1]
  Chip Fluorescence (max): -1.1866
[2]
  Chip Fluorescence (mean): -2.157

## RAYINPFMQFIDGGRR [SeqRBMlowT_1520]
[3]
  Chip Fluorescence (max): 1.802
[4]
  Chip Fluorescence (mean): -0.3387

## TFWTNPQFKVTLEEPD [SeqRBMlowT_2957]
[7]
  Chip Fluorescence (max): 1.208
[8]
  Chip Fluorescence (mean): -0.4648

## NKLKIPHQLSQPINDH [SeqRBM_2163]
[5]
  Chip Fluorescence (max): 2.778
[6]
  Chip Fluorescence (mean): 0.1403

## TFWTNPQFRLTLLSPD [SeqRBMlowT_9173]
[7]
  Chip Fluorescence (max): 1.238
[8]
  Chip Fluorescence (mean): 0.4236

## LDEAIPEIVISPPETP [SeqRBMlowT_4410]
[11]
  Chip Fluorescence (max): 9.285
[12]
  Chip Fluorescence (mean): 1.035

## GGPGTPTRQGQHLAPG [SeqRBMlowT_9846]
[11]
  Chip Fluorescence (max): 21.0979
[12]
  Chip Fluorescence (mean): 2.702

## PGLYDNALGMESFTLS [SeqRBMlowT_2805]
[7]
  Chip Fluorescence (max): 1.201
[8]
  Chip Fluorescence (mean): 0.8541

## RAYMNPFMTFIDGGHR [SeqRBMlowT_1518]
[3]
  Chip Fluorescence (max): 1.378
[4]
  Chip Fluorescence (mean): 0.8819

## LKDEIPEVRLNIISNL [SeqRBMlowT_1003]
[11]
  Chip Fluorescence (max): 3.957
[12]
  Chip Fluorescence (mean): 2.453

## KKMAPPCINIDPAPTN [SeqRBMlowT_309]
[3]
  Chip Fluorescence (max): 1.659
[4]
  Chip Fluorescence (mean): -0.3088

## KKMSPPCIDVHPLDSA [SeqRBM_2282]
[5]
  Chip Fluorescence (max): 2.64
[6]
  Chip Fluorescence (mean): 0.293

## NIEKMPELQACGHTSF [SeqRBM_2022]
[11]
  Chip Fluorescence (max): 4.705
[12]
  Chip Fluorescence (mean): 1.485

## TFWANPQFKIRLEEPD [SeqRBMlowT_2213]
[7]
  Chip Fluorescence (max): 1.142
[8]
  Chip Fluorescence (mean): -0.04147

## RQPGTLGLTLEGHSNS [SeqRBM_7786]
[9]
  Chip Fluorescence (max): 0.7712
[10]
  Chip Fluorescence (mean): -0.3628

## TFWTNPQFKLKLLDPD [SeqRBMlowT_4269]
[5]
  Chip Fluorescence (max): 3.1491
[6]
  Chip Fluorescence (mean): 0.8579

## RNPGQALLTLRGHSKQ [SeqRBMlowT_6189]
[3]
  Chip Fluorescence (max): 1.609
[4]
  Chip Fluorescence (mean): 0.3772

## LKDESPEVRLNIISKL [SeqRBMlowT_3831]
[7]
  Chip Fluorescence (max): 1.167
[8]
  Chip Fluorescence (mean): 0.2257

## STAALPKFDFSNPHIS [SeqRBM_9234]
[5]
  Chip Fluorescence (max): 2.8681
[6]
  Chip Fluorescence (mean): 0.4605

## SAGAGVGIVITVTEAE [SeqRBMlowT_164]
[3]
  Chip Fluorescence (max): 1.523
[4]
  Chip Fluorescence (mean): -0.8688

## KAYINPFMTFIEGGRK [SeqRBMlowT_3627]
[11]
  Chip Fluorescence (max): 4.329
[12]
  Chip Fluorescence (mean): 0.4696

## GVPETPSRPVDPTAPS [SeqRBM_5086]
[1]
  Chip Fluorescence (max): -0.4316
[2]
  Chip Fluorescence (mean): -1.3551

## STSSLPTFSFSSPAPS [SeqRBMlowT_801]
[1]
  Chip Fluorescence (max): -0.2979
[2]
  Chip Fluorescence (mean): -1.46

## RQPGTAPANLVGHKKQ [SeqRBM_2906]
[9]
  Chip Fluorescence (max): 0.7504
[10]
  Chip Fluorescence (mean): -0.5221

## DVSDSPDVDLKIPQAR [SeqRBM_5022]
[9]
  Chip Fluorescence (max): 0.6546
[10]
  Chip Fluorescence (mean): -0.1589

## LTWTSNDMKLHLSGVS [Seqshuffled_9827]
[9]
  Chip Fluorescence (max): 0.7935
[10]
  Chip Fluorescence (mean): -0.8344

## LNRIEIFVTFNFTRNS [Seqshuffled_5110]
[5]
  Chip Fluorescence (max): 3.363
[6]
  Chip Fluorescence (mean): 0.477

## LATQVPTFEITSPNSA [SeqNRG2_Pan_troglodytes]
[1]
  Chip Fluorescence (max): 0.1795
[2]
  Chip Fluorescence (mean): -0.588

## FETSHPTVQLKIPQLR [SeqLCORL_Pteropus_alecto]
[5]
  Chip Fluorescence (max): 2.606
[6]
  Chip Fluorescence (mean): -0.1576

## PSDPQPSIIVHACLED [SeqRBM_9284]
[5]
  Chip Fluorescence (max): 3.302
[6]
  Chip Fluorescence (mean): 0.8695

## TFWTNPQYKITLEEPD [SeqRBMlowT_54]
[7]
  Chip Fluorescence (max): 1.133
[8]
  Chip Fluorescence (mean): -0.8126

## SFWTNPQFRVKLEEVD [SeqRBMlowT_8566]
[7]
  Chip Fluorescence (max): 1.129
[8]
  Chip Fluorescence (mean): 0.3513

## RNPERPKLHLQGHLVA [SeqRBM_9016]
[7]
  Chip Fluorescence (max): 1.316
[8]
  Chip Fluorescence (mean): -0.7354

## KAYIMLFFTFIDGGQK [SeqRBM_3979]
[9]
  Chip Fluorescence (max): 0.8506
[10]
  Chip Fluorescence (mean): -0.3833

## PMMAVPSISSDVSNAP [SeqRBM_5566]
[3]
  Chip Fluorescence (max): 1.398
[4]
  Chip Fluorescence (mean): 0.7603

## RNPGTALLELRGHSAS [SeqRBMlowT_6200]
[5]
  Chip Fluorescence (max): 2.68
[6]
  Chip Fluorescence (mean): 1.087

Reference: article PMC9928118, “Funneling modulatory peptide design with generative models: Discovery and characterization of disruptors of calcineurin protein-protein interactions” (PLOS Computational Biology, 2023)
